{
  "source": "patent US5846936A",
  "about": "“Growth hormone releasing factor analogs” (Roche Vitamins Inc., priority 1995, dated 1998)",
  "note": "Where a SMILES comes first, the peptide text is derived from it. Where no end group is shown, it is not given here. [ ]: non-standard residue; d: D form. The star is where a group is joined. Desaminotyrosyl = O=C(CCc1ccc(O)cc1)*",
  "data": [
    {"tested_on": "rat pituitary cells", "format": "cell-based", "details": "not given", "protocol": "The biological activity of the novel peptides were compared with that of a synthetic standard of the natural sequence of GRF(1-44)-NH2 (SEQ ID NO: 1-NH2) which was isolated from a human pancreatic tumor of an individual suffering from acromegaly (Salk Institute standard hp-GRF-NH2 (NL-A-10)). The assay for biological activity, which is based on the ability to stimulate production of growth hormone in rat pituitary cells in tissue culture, was performed in the following manner. Pituitaries from 30-40 male Sprague-Dawley rats (175 g) were removed aseptically after decapitation. The anterior lobes were collected, washed 3 times in sterile Hepes buffer (0.025M)(pH 7.35) and dispersed at 37° C. in 20-30 ml Hepes buffer (pH 7.35) containing collagenase (4 mg per ml) and Dispase (Protease grande II, 2 mg per ml). After gentle 80 min. vortexing and trituration by Pasteur pipette, the dispersed cells were separated by centrifugation (150×g, 4 min.) and re-suspended in Hepes buffer containing neuraminidase (4 mg/ml), and […] ethylenediaminetetraacetic acid (EDTA) disodium salt pH 7.35, for 10 min. The cells were washed twice with plating medium and plated on multiwell-plates (1.5×10^5 cells per ml) using the following defined medium: F-12/DMEM/BGJ(6:3:1) (Gibco: 430-1700/430-1600/320-2591) with 2 g BSA/L., 2.38 g Hepes/L.,50 mg Gentamycin/L (Schering Co.). The medium in each well was supplemented either with the novel peptide or natural GRF(1-44)-NH2 (SEQ ID NO: 1-NH2) at concentrations ranging from 3.1 to 200 fmol. per ml. of medium. Control wells contained no supplement. Plating was done with this medium added with 2% fetal calf serum to ensure rapid fixation of the cells. On the fourth day the cells were washed twice with the defined medium without fetal calf serum. Finally […] of defined medium was added to each well plus […] of the same medium containing each individual treatment, in triplicate. After 3 hours of incubation the medium was collected and diluted as required to conduct radioimmunoassay (RIA) for rat growth hormone. RIAs were conducted using Sinha's anti-murine GH immune serum and procedures according to the National Pituitary Agency using protein A to precipitate antibody antigen complex.", "values": [
      {"molecule": "CC[C@H](C)[C@H](NC(=O)[C@H](C)NC(=O)[C@H](CC(=O)O)NC(=O)[C@@H](C)NC(=O)CCc1ccc(O)cc1)C(=O)N[C@@H](Cc1ccccc1)C(=O)N[C@H](C(=O)N[C@@H](CCC(N)=O)C(=O)N[C@@H](CO)C(=O)N[C@@H](Cc1ccc(O)cc1)C(=O)N[C@@H](CCCNC(=N)N)C(=O)N[C@@H](CCCCN)C(=O)N[C@H](C(=O)N[C@@H](CC(C)C)C(=O)N[C@@H](C)C(=O)N[C@@H](CCC(N)=O)C(=O)N[C@@H](CC(C)C)C(=O)N[C@@H](CO)C(=O)N[C@@H](C)C(=O)N[C@@H](CCCNC(=N)N)C(=O)N[C@@H](CCCCN)C(=O)N[C@@H](CC(C)C)C(=O)N[C@@H](CC(C)C)C(=O)N[C@@H](CCC(N)=O)C(=O)N[C@@H](CC(=O)O)C(=O)N[C@H](C(=O)N[C@@H](CC(C)C)C(=O)N[C@@H](CO)C(=O)N[C@@H](CCCNC(=N)N)C(=O)N[C@@H](CCC(N)=O)C(=O)N[C@@H](CCC(N)=O)C(=O)NCC(=O)O)[C@@H](C)CC)C(C)C)[C@@H](C)O", "note": "[SEQ ID NO: 31-OH] (Desaminotyrosyl-[dA]DAIFTQSYRKVLAQLSARKLLQDILSRQQG-OH)", "Potency of GRF Analogs Relative to GRF(1-44)-NH2 (SEQ ID NO: 1-NH2)": 4.20},
      {"molecule": "HADAIFTQSYRKVLAQLSARKLLQDILSRQQG [SEQ ID NO: 23-OH]", "Potency of GRF Analogs Relative to GRF(1-44)-NH2 (SEQ ID NO: 1-NH2)": 2.96},
      {"molecule": "HVDAIFTQSYRKVLAQLSARKLLQDILNRQQG [SEQ ID NO: 14-OH]", "Potency of GRF Analogs Relative to GRF(1-44)-NH2 (SEQ ID NO: 1-NH2)": 3.11},
      {"molecule": "HVDAIFTQSYRKVLAQLSARKLLQDILSRQQG [SEQ ID NO: 13-OH]", "Potency of GRF Analogs Relative to GRF(1-44)-NH2 (SEQ ID NO: 1-NH2)": 2.79}
    ]},
    {"tested_on": "not given", "details": "products of Asn^8 deamidation of [Leu^27]-GRF(1-32)-NH2 at pH 7.4, literature; cited from earlier work", "values": [
      {"molecule": "[Asp^8, Leu^27 ]-GRF(1-32)-NH2 (YADAIFTDSYRKVLGQLSARKLLQDILSRQQG-NH2) [deamidation product of [Leu^27]-GRF(1-32)-NH2]", "Biological activities": "substantially reduced biological activities"}
    ]}
  ]
}
